Data published in patent US9168253B2, “Quinazoline compounds” (HUTCHISON MEDIPHARMA LIMITED, priority 2010, dated 2015).

Assays:
EGFR = molecular target: T1, EGFR (Homo sapiens, UniProt P00533); assay: EGFR Activation-Inhibiting Test (DELFIA, EGF-stimulated A431 cells); type: cell-based; conditions: 60 min compound, EGF stimulation 45 min, read-out: IC50 (inhibition of EGF-stimulated EGFR activation)
T1 construct: endogenous in cells; host or cells: A431 (human epidermoid carcinoma)
Procedure: Cell seeding and starving: A431 (human epidermoid carcinoma) cells diluted in 10% […] containing DMEM are seeded at 1.3×10^4 cells/well in 96-well plates and incubated overnight. Then the cell culture medium is replaced with 90 μL/well serum-free DMEM medium. The plates are incubated overnight for starvation.
Compound dilution and treatment: the test compounds are diluted in a 3-fold series in FBS-free medium containing 5% DMSO. 10 μL/well of the diluted compound is added into cells, 10 μL/well of 5% DMSO without test compound is added into the control wells. Duplication study is performed for each test point. Then, the plates are incubated at 37° C. for 60 minutes in a 5% CO2 incubator. 10 μL/well of 200 ng/mL EGF (Biosource, PHG0064) is added and incubate the plates at 37° C. for 45 minutes in the 5% CO2 incubator.
Lysate preparation: the medium is removed, and 100 μL/well of 50 mM Tris-Cl, pH 8.0 cell lysis buffer (containing 0.5 M NaCl, 0.2 mM EDTA, 0.1% Triton X-100, 1 μg/mL aprotinin, 0.75 μg/mL leupeptin, 1 μg/mL pepstatin, 1 mM DTT, 500 μM sodium vanadate, and 1 mM PMSF) is added into each well to lyse cells. The protease inhibitors are added right before use. The cell lysate is frozen at −80° C. overnight.
Plate coating and blocking: 100 μL/well of 0.5 μg/ml anti-EGFR antibody (Perkin Elmer, AF231) diluted in PBS is added to a 96-well DELFIA plate (Perkin Elmer, AAAND-0001) and incubated at 25° C. overnight with gentle shaking. The solution is discarded. The plate is washed 3 times with 200 μL/well of DELFIA wash buffer (PBS buffer containing 0.05% Tween-20). 200 μL/well of blocking buffer (PBS containing 0.137 M of NaCl, 0.0027 M of KCl, 0.01 M of Na2PO4.12H2O, 0.0015 M of KH2PO4, pH7.4, and 1% BSA) is added into each well and the plate is incubated at 25° C. for 2 h with gentle shaking.
Binding: the blocking buffer is discarded and the plate is washed with 200 μL/well of DELFIA wash buffer 3 times. 80 μL/well of the sample diluent (20 mM Tris-Cl/pH7.3, 150 mM NaCl, 0.1% of BSA, and 0.05% Tween-20) and 20 μL/well of cell lysate are then added to each well. Incubate the plate at 25° C. for additional 1 h with gentle shaking.
Detection: The plate is washed again with 200 μL/well of DELFIA wash buffer for 3 times. 100 μL/well of […] Eu-PT66 antibody (Perkin Elmer, AD0040) diluted in DELFIA assay buffer (Perkin Elmer, 1244-106) is added and incubate the plate at 25° C. for 1 h with gentle shaking. After washing with 200 μL/well of DELFIA wash buffer 3 times, 100 μL/well of DELFIA enhancement buffer (Perkin Elmer, 4001-0010) is added. Incubate the plate at 25° C. for 30 min with gentle shaking.
Readout: fluorescence signal is measured at 340 nm excitation and 620 nm emission on Victor^3 (PerkinElmer).
Inhibition rates are calculated as follow:
[Fluorescence Readout]Treated is the readout of the wells treated with test compound upon EGF stimulation
[Fluorescence Readout]Untreated is the readout of the wells with neither compound treatment nor EGF stimulation, which is used as cell background signal
[Fluorescence Readout]EGF is the readout of wells with EGF stimulation, but no compound treatment, which is used as maximal signal
IC50 is calculated using XL-Fit 2.0 software.

[1] = tested on: HCC827 (human non small cell lung cancer, NSCLC) xenograft; assay: In vivo anti-tumor test, HCC827 subcutaneous xenograft; conditions: HCC827 xenograft in nude mice
Procedure: (§1) Human tumor cell lines: Fadu (human head and neck, pharynx carcinoma, HTB-43), HCC827 (human non small cell lung cancer, NSCLC; CRL-2868), A431 (human epidermoid carcinoma, CRL-2592) cell lines were purchased from ATCC; Fadu, HCC827 and A431 cells were grown in EMEM, RPMI 1640 and DMEM medium plus 10% FBS respectively. These cells were incubated in a humidifier incubator at 37° C. and under 5% CO2.
(§2) Animals: Athymic mice (6-8 weeks) were purchased from Shanghai SLAC laboratory animal CO. LTD. The animals were housed in the SPF environment, 4 animals/cage under standard conditions (12:12 h light/dark, 40-50% relative humidity at 20-25° C.) and were given free access to Co^60 radiated-sterile diet and sterile water.
(§3) Agents: Test compounds were formulated in sterile 0.5% CMC-Na at different concentrations (0.05˜1.0 mg/mL), and then stored at 4° C.
(§4) Subcutaneous implantation of tumor cells and anti-tumor efficacy study: The tumor cells were incubated at 37° C. in a 5% CO2 incubator until they reached approximately 80% confluence. Cells were detached by 0.05% Trypsin-EDTA, centrifuged at 800 rpm, and the cells were suspended in serum free medium. The concentration was adjusted for nude mice implantation. The nude mice were quarantined for several days before implantation, and 3×10^6 FaDu or A431 cells in 0.1 mL medium, or 5×10^6 HCC827 cells in the 0.2 mL medium were subcutaneously injected to the right lateral flank of nude mice.
One to three weeks after inoculation, when average tumor volume reached 100-300 mm^3, the animals were randomized and divided into vehicle and compound treated groups. The mice were orally administrated with either the vehicle, 0.5% CMC-Na, or the test compounds at different dose levels once a day. Tumor volume was measured 2-3 times per week by caliper for length and width, and was calculated using the formula: Tumor volume (TV, mm^3)=width^2×length/2. Animal body weight and behavior were observed during the experiment. Tumor growth inhibition was calculated as follows: TGI (%)=100−(T−T0)/(C−C0)×100%, where T represents mean tumor volume of a treated group on a specific day during the experiment, T0 represents mean tumor volume of the same treated group on the first day of treatment, C represents mean tumor volume of a control group on the specific day during the experiment, and C0 represents mean tumor volume of the same control group on the first day of treatment.
Tumor volume data were expressed as Mean±SD. One-way ANOVA was used for multiple comparisons and Student's t-test was used for comparison with vehicle control. Differences were considered statistically significant at P<0.05.

[2] = tested on: A431 (human epidermoid carcinoma) xenograft; assay: In vivo anti-tumor test, A431 subcutaneous xenograft; conditions: A431 xenograft in nude mice
Procedure: as §1, §2, §3, §4
(§5) One to three weeks after inoculation, when average tumor volume reached 100-300 mm^3, the animals were randomized and divided into vehicle and compound treated groups. The mice were orally administrated with either the vehicle, 0.5% CMC-Na, or the test compounds at different dose levels once a day. Tumor volume was measured 2-3 times per week by caliper for length and width, and was calculated using the formula: Tumor volume (TV, mm^3)=width^2×length/2. Animal body weight and behavior were observed during the experiment. […]
(§6) Tumor volume data were expressed as Mean±SD. […]

[3] = tested on: Fadu (human head and neck, pharynx carcinoma) xenograft; assay: In vivo anti-tumor test, FaDu subcutaneous xenograft; conditions: FaDu xenograft in nude mice
Procedure: as §1, §2, §3, §4, §5, §6

hERG channels = molecular target: T2, hERG channels (Homo sapiens, UniProt Q12809); assay: hERG assay, manual whole-cell patch clamp; type: cell-based; conditions: CHO cells expressing hERG, five concentrations, read-out: IC50 for inhibition of hERG tail currents
T2 construct: expressed in transfected cells; host or cells: CHO
T2 sequence (Q12809 whole entry): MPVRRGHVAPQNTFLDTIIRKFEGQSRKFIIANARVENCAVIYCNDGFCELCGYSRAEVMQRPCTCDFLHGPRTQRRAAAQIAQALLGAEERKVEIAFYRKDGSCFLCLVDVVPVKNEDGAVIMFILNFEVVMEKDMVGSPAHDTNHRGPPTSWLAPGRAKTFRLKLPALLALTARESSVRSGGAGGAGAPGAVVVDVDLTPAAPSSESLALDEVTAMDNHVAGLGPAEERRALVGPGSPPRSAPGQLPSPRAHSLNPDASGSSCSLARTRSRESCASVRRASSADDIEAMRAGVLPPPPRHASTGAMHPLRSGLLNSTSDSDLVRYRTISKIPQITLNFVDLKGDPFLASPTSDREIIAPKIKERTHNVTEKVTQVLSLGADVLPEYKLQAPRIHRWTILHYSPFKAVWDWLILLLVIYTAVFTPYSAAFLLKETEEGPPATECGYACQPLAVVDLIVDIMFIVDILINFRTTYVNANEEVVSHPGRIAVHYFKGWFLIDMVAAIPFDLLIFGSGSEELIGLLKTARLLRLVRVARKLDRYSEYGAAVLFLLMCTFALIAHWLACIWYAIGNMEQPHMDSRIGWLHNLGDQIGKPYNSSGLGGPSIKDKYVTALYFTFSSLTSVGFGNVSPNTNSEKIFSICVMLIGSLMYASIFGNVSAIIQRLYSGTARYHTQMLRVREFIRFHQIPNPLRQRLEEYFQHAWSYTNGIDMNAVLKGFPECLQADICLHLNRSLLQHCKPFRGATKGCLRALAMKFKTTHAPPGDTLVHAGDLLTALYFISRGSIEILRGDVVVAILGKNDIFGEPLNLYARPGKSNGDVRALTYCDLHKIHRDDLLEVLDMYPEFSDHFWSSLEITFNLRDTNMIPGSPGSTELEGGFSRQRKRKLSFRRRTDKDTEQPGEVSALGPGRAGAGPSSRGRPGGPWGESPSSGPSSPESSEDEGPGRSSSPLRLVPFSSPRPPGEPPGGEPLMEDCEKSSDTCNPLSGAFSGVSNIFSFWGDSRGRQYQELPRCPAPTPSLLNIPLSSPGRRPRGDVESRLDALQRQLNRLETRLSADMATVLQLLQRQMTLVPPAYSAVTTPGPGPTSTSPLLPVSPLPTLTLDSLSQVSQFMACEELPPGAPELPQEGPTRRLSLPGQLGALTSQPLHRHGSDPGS
Procedure: A CHO cell line stably transfected with hERG cDNA and expressing hERG channels was used for the study. Cells were cultured in medium containing:
For the electrophysiological recordings the following solutions were used
Whole-cell recordings were performed using a EPC10 USB(HEKA). The cells were voltage clamped at a holding potential of −80 mV. The hERG current was activated by depolarizing at +20 mV for 2 sec, after which the current was taken back to −50 mV for 2 sec to remove the inactivation and observe the deactivating tail current. The first step at −50 mV was used as a baseline for measuring the tail current peak amplitude.
Compounds were prepared as a 10 mM DMSO stock in a glass vial. The stock solution was mixed vigorously for 10 minute at room temperature. For testing, the compound was diluted in a glass vial using solution; the dilution was prepared no longer than 30 minutes before use. Equal amounts of DMSO (0.1%) were present at final dilution.
After achieving whole-cell configuration, the cells were monitored for 90 sec to assess stability and washed with external solution for 66 sec. The voltage protocol described above was then applied to the cells every 20 sec throughout the whole procedure. Only stable cells with recording parameters above threshold were allowed to enter the drug addition procedure. […]
Data were analyzed using Pulsefit and Origin 7 (Originlab Corporation).

T1 sequence (P00533 25-1210): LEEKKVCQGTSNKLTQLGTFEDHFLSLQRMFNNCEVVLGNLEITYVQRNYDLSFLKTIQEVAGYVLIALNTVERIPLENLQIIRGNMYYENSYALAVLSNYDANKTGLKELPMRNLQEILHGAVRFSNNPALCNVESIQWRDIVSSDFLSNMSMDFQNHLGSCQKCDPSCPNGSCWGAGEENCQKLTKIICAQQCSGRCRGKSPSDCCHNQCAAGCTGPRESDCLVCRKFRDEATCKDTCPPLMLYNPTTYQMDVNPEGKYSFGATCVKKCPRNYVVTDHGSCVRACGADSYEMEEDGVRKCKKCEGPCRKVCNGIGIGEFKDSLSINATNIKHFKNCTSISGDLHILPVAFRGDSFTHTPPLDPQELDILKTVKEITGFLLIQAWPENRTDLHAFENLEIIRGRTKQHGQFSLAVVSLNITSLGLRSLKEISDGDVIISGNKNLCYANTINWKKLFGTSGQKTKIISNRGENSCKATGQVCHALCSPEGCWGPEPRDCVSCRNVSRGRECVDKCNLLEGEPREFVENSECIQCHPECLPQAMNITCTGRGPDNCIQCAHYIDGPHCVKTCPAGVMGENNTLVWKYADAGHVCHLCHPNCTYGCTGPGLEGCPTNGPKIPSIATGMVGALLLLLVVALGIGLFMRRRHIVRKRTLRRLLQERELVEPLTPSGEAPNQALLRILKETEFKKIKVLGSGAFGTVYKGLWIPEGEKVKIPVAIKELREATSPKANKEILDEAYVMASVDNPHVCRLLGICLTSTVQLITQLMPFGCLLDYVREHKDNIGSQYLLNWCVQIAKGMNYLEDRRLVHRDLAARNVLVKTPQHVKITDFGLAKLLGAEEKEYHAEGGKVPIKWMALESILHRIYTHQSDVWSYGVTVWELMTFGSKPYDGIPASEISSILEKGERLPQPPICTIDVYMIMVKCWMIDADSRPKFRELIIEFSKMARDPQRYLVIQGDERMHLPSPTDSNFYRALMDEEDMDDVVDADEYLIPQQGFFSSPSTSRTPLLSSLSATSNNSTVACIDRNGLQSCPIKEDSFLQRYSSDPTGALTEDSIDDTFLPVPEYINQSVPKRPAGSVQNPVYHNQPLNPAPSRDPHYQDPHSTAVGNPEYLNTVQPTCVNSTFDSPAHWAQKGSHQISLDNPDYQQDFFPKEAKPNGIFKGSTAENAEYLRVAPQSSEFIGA

COc1cc2ncnc(Nc3ccc4c(cnn4Cc4cccc(F)c4)c3)c2cc1NC(=O)N1C[C@H]2CCN(C)[C@H]2C1 [Compound 1, (3aR,6aR)—N-(4-(1-(3-fluorobenzyl)-1H-indazol-5-ylamino)-7-methoxyquinazolin-6-yl)-1-methylhexahydropyrrolo[3,4-b]pyrrole-5(1H)-carboxamide]
IC50 (EGFR): 185 nM

COc1cc2ncnc(Nc3ccc4c(cnn4Cc4cccc(F)c4)c3)c2cc1NC(=O)N1C[C@@H]2CCN(C)[C@@H]2C1 [Compound 2, (3aS,6aS)—N-(4-(1-(3-fluorobenzyl)-1H-indazol-5-ylamino)-7-methoxyquinazolin-6-yl)-1-methylhexahydropyrrolo[3,4-b]pyrrole-5(1H)-carboxamide]
IC50 (EGFR): 439 nM

C#Cc1cccc(Nc2ncnc3cc(OC)c(NC(=O)N4C[C@H]5CCN(C)[C@H]5C4)cc23)c1 [Compound 3, (3aR,6aR)—N-(4-(3-ethynylphenylamino)-7-methoxyquinazolin-6-yl)-1-methyl-hexahydropyrrolo[3,4-b]pyrrole-5(1H)-carboxamide]
TGI % ([1]; 0.5 mpk p.o. qd x 21 days): 59.2%
TGI % ([1]; 1 mpk p.o. qd x 21 days): 114.7%
TGI % ([1]; 2 mpk p.o. qd x 21 days): 127.8%
TGI % ([1]; 5 mpk p.o. qd x 21 days): 140.8%
IC50 (EGFR): 6 nM
TGI % ([2]; 2 mpk p.o. qd x 21 days): 21.3%
TGI % ([2]; 5 mpk p.o. qd x 21 days): 62.8%
TGI % ([2]; 10 mpk p.o. qd x 21 days): 85.3%
TGI % ([3]; 2 mpk p.o. qd x 21 days): 46.1%
TGI % ([3]; 5 mpk p.o. qd x 21 days): 66.9%
TGI % ([3]; 10 mpk p.o. qd x 21 days): 95.2%
IC50 (hERG channels): 9300 ± 1200 nM

COc1cc2ncnc(Nc3ccc(OCc4cccc(F)c4)c(Cl)c3)c2cc1NC(=O)N1C[C@@H]2CCN(C)[C@@H]2C1 [Compound 4, (3aS,6aS)—N-(4-(3-chloro-4-(3-fluorobenzyloxy)phenylamino)-7-methoxyquinazolin-6-yl)-1-methylhexahydropyrrolo[3,4-b]pyrrole-5(1H)-carboxamide]
IC50 (EGFR): 16 nM

COc1cc2ncnc(Nc3ccc(OCc4cccc(F)c4)c(Cl)c3)c2cc1NC(=O)N1C[C@H]2CCN(C)[C@H]2C1 [Compound 5, (3aR,6aR)—N-(4-(3-chloro-4-(3-fluorobenzyloxy)phenylamino)-7-methoxyquinazolin-6-yl)-1-methylhexahydropyrrolo[3,4-b]pyrrole-5(1H)-carboxamide]
IC50 (EGFR): 44 nM

CN1CC[C@H]2CN(C(=O)Nc3ccc4ncnc(Nc5ccc(OCc6cccc(F)c6)c(Cl)c5)c4c3)C[C@H]21 [Compound 6, (3aS,6aS)—N-(4-(3-chloro-4-(3-fluorobenzyloxy)phenylamino)quinazolin-6-yl)-1-methylhexahydropyrrolo[3,4-b]pyrrole-5(1H)-carboxamide]
IC50 (EGFR): 210 nM

CN1CC[C@@H]2CN(C(=O)Nc3ccc4ncnc(Nc5ccc(OCc6cccc(F)c6)c(Cl)c5)c4c3)C[C@@H]21 [Compound 7]
IC50 (EGFR): 241 nM
